These results are taken from publication PMC4993559 (Journal of Experimental Pharmacology, 2016).

SMILES strings stand for the structures. Where two headings read alike, the source gives them in different places. Some results are limits rather than exact numbers.

Data set [1] deals with T1, CSF1R (c-fms) (Homo sapiens, UniProt P07333). The settings on record: read-out: IC50 (class); Momelotinib scale; cited from earlier work.
Data set [2] has as its target T2, HIPK4 (Homo sapiens, UniProt Q8NE63).
T2 sequence (Q8NE63 1-616): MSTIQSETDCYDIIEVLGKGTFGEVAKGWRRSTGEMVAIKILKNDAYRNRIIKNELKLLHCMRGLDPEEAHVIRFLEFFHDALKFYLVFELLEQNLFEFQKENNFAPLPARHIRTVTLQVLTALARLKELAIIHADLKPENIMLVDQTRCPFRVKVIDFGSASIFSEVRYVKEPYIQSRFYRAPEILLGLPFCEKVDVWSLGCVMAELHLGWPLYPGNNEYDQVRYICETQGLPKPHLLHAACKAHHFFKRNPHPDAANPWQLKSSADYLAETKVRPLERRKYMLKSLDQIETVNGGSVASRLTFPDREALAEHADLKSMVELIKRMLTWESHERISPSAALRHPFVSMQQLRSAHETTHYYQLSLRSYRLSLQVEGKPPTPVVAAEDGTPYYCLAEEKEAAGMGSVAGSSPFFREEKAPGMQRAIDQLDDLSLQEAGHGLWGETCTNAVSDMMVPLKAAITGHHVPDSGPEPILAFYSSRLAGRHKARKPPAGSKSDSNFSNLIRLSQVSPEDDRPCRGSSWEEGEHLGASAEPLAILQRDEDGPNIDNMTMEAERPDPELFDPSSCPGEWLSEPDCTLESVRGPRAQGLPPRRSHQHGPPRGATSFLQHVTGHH
The settings on record: read-out: IC50 (class); Momelotinib scale; cited from earlier work.

Data set [3] addresses T3, c-src (Homo sapiens, UniProt P12931). To be noted: read-out: IC50 (class); Momelotinib scale; cited from earlier work.
In data set [4] the target is T4, ROS1 (Homo sapiens, UniProt P08922). To be noted: read-out: IC50 (class); Momelotinib scale; cited from earlier work.
Data set [5] addresses T5, TNK1 (Homo sapiens, UniProt Q13470).
T5 sequence (Q13470 1-666): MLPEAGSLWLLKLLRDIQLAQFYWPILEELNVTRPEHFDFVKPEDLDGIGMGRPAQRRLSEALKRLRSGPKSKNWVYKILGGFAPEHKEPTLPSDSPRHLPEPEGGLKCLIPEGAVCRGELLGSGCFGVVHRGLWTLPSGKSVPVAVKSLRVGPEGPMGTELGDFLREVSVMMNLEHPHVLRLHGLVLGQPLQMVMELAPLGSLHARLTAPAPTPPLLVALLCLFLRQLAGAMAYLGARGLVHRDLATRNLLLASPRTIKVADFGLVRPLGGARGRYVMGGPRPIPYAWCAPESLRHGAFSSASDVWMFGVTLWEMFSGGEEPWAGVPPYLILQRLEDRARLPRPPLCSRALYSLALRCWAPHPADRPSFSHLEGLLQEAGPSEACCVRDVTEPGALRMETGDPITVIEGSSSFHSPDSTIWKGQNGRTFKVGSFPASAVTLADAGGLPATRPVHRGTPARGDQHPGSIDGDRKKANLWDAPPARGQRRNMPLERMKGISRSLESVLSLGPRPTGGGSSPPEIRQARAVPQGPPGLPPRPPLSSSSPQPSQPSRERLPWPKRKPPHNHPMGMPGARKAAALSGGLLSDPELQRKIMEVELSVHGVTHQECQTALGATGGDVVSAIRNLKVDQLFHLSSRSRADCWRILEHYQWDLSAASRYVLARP
The experiment in a line: HotSpot radioisotope filter-binding kinase assay. The format is biochemical.

Data set [6] deals with T1, CSF1R (c-fms). The experiment in a line: HotSpot radioisotope filter-binding kinase assay. Type of data set: biochemical.
Data set [7] relates to AML cell lines. The settings on record: AML cell lines harboring various mutations; cited from earlier work.
The target of data set [8] is TRKC (Homo sapiens, UniProt Q16288). Put plainly: HotSpot radioisotope filter-binding kinase assay. Type of data set: biochemical.
The target in data set [9] is IRAK1 (Homo sapiens, UniProt P51617). The experiment in a line: HotSpot radioisotope filter-binding kinase assay. The format is biochemical.
A short description of data set [10]: Steady-state peak plasma concentration after 400 mg daily. Type of data set: in vivo. To be noted: humans, calculated/simulated.
In data set [11] the target is c-kit (Homo sapiens, UniProt P10721). Put plainly: HotSpot radioisotope filter-binding kinase assay. Type of data set: biochemical.
Data set [12] deals with T2, HIPK4. The experiment in a line: HotSpot radioisotope filter-binding kinase assay. Type of data set: biochemical.
Data set [13] has as its target T4, ROS1. Put plainly: HotSpot radioisotope filter-binding kinase assay. Type of data set: biochemical.
The test system of data set [14] is primary CMML cells. The settings on record: cited from earlier work.
The test system of data set [15] is phosphorylated IRAK1. The settings on record: AML cells; cited from earlier work.
The target of data set [16] is JAK1 (Homo sapiens, UniProt P23458). The experiment in a line: HotSpot radioisotope filter-binding kinase assay. The format is biochemical.
Data set [17] has as its target TYK2 (Homo sapiens, UniProt P29597). The experiment in a line: HotSpot radioisotope filter-binding kinase assay. The format is biochemical.
Data set [18] has as its target T3, c-src. The experiment in a line: HotSpot radioisotope filter-binding kinase assay. The format is biochemical.
Where [19] appears, read: IC50, recombinant kinase, 10 μM ATP.

T3 sequence (P12931 whole entry): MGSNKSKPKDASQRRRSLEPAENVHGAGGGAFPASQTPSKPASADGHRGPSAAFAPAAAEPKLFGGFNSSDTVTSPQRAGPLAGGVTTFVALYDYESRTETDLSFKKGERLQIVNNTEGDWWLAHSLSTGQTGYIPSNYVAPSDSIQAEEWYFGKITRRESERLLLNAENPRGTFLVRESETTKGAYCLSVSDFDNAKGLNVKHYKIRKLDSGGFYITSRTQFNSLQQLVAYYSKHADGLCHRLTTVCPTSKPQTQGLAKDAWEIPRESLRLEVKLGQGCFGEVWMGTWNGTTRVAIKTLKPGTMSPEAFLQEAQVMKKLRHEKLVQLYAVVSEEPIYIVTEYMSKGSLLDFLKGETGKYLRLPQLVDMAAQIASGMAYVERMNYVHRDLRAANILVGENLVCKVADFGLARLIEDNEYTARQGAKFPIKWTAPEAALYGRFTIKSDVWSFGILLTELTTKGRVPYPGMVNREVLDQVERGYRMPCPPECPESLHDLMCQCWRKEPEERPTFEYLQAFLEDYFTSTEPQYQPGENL
JAK1, sequence (P23458 whole entry): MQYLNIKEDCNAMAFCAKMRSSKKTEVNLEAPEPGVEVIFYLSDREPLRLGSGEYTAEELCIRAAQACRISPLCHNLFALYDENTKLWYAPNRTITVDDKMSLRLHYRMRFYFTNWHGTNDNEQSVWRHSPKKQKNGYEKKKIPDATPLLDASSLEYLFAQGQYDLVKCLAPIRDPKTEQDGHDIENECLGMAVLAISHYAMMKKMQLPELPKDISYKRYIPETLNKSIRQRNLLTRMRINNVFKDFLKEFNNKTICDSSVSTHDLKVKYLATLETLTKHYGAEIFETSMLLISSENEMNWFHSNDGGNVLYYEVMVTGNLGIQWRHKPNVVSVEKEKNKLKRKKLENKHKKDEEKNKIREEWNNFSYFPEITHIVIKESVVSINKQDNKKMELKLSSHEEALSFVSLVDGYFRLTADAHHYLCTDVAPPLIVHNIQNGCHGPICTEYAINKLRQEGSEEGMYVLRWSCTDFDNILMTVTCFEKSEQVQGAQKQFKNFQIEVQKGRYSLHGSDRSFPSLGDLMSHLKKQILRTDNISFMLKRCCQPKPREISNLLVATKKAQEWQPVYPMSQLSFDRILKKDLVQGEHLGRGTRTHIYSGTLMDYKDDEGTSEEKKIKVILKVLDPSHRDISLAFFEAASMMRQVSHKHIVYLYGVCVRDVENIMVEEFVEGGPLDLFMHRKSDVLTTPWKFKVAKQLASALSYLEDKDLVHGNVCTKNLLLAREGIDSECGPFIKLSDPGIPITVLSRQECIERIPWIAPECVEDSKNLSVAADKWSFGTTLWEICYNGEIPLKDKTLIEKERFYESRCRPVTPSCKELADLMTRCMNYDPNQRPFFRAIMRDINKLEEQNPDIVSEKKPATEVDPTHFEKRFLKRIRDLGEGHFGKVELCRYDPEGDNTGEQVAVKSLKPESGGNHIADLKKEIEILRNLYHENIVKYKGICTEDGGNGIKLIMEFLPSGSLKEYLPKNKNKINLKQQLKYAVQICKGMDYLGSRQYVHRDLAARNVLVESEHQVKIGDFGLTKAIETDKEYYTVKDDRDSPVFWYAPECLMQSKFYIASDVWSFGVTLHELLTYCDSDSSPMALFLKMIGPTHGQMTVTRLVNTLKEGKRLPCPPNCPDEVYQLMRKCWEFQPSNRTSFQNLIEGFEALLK
T1 sequence (P07333 20-972): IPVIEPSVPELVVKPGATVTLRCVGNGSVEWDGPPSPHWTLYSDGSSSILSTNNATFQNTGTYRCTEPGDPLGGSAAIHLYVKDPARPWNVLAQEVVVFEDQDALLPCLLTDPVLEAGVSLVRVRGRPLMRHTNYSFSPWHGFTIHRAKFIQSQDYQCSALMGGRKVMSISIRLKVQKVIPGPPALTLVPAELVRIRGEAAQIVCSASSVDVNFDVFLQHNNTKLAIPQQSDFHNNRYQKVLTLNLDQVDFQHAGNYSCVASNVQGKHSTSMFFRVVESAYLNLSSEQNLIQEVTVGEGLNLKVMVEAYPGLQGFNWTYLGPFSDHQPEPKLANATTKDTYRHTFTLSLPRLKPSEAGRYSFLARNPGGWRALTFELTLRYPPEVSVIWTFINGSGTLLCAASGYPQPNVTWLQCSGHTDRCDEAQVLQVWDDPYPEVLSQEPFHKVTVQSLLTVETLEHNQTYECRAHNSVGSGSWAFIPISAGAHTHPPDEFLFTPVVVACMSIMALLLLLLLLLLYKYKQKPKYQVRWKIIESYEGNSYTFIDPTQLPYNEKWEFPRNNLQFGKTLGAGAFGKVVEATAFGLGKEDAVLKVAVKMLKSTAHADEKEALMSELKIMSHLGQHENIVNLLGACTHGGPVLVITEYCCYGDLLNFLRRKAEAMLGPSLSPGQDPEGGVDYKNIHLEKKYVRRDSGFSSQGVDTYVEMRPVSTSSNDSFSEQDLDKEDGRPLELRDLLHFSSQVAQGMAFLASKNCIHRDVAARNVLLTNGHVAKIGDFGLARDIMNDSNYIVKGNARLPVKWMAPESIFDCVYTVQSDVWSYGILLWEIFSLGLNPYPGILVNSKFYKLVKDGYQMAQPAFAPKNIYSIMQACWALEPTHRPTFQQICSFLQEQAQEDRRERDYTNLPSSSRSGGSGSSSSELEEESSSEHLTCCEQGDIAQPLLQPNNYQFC
T4 sequence (P08922 28-2347): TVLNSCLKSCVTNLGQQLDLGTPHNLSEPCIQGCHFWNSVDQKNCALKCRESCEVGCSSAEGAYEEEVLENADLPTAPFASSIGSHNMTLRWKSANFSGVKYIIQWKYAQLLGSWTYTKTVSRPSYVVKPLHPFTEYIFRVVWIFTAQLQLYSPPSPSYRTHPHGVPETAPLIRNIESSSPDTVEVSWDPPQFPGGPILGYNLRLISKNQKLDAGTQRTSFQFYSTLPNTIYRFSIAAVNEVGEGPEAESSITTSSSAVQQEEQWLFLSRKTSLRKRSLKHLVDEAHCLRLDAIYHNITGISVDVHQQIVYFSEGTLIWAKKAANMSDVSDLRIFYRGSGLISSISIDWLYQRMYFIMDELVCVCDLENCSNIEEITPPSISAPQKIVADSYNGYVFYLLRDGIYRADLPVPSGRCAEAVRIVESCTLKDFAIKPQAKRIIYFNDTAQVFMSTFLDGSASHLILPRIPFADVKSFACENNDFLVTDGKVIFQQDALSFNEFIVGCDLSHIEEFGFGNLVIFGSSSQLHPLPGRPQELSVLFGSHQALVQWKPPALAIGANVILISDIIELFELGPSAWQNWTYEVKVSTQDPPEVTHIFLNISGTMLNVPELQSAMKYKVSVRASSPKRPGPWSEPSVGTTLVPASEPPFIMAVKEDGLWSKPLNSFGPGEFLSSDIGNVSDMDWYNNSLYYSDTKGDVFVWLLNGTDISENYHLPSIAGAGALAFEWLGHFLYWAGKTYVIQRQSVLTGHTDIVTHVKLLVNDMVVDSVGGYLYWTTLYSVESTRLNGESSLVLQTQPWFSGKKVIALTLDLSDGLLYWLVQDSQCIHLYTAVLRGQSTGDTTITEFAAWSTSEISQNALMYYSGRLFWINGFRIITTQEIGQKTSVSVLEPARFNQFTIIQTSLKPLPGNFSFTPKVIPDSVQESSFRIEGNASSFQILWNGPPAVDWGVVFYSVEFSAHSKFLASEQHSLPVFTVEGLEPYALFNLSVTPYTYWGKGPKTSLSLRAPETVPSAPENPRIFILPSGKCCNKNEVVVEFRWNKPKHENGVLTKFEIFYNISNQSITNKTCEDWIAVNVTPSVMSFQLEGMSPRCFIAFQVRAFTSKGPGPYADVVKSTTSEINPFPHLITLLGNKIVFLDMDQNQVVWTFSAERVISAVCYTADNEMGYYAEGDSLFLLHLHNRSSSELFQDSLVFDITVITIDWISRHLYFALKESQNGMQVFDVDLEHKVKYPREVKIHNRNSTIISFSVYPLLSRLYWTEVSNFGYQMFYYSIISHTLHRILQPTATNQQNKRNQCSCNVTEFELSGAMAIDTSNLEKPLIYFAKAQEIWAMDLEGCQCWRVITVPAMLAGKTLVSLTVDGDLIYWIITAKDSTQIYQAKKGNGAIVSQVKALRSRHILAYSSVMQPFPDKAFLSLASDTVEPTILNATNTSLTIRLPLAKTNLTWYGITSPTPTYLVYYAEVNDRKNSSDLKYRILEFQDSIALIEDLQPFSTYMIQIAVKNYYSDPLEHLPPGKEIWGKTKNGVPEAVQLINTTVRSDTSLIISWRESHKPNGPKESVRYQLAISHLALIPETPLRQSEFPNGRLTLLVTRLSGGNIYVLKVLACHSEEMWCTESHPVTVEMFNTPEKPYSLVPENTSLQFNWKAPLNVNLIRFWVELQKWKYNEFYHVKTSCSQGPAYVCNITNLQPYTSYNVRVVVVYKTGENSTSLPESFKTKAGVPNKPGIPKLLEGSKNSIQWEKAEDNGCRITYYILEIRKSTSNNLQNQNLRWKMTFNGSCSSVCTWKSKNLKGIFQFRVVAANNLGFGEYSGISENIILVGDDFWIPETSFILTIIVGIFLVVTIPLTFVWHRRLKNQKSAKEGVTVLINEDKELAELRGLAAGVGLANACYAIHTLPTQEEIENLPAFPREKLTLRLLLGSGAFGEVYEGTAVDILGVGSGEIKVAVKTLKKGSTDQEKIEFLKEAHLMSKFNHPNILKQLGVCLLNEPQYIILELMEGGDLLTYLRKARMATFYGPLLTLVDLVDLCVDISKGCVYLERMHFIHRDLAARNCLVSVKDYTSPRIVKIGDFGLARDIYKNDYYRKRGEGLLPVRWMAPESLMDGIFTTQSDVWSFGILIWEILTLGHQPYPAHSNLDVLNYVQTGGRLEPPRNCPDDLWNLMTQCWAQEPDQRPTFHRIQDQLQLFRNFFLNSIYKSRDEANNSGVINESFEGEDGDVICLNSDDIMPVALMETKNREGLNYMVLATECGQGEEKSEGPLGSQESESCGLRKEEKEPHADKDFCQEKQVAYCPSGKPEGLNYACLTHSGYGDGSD

As for `N#CCNC(=O)c1ccc(-c2ccnc(Nc3ccc(N4CCOCC4)cc3)n2)cc1` [Momelotinib], the IC50 in data set [1] is below 1000 nM; in data set [2] it was below 1000 nM; in [3] it was above 1000 nM; in data set [4], below 1000 nM.
On to `C1=C/COCc2cc(ccc2OCCN2CCCC2)Nc2nccc(n2)-c2cccc(c2)COC/1` [Pacritinib, 11-(2-pyrrolidin-1-yl-ethoxy)-14,19-dioxa-5,7,26-triaza-tetracyclo[19.3.1.1(2,6). 1(8,12)]heptacosa-1(25),2(26),3,5,8,10,12(27),16,21,23-decaene], for which the IC50 in [5] (IC50 (class), Pacritinib scale) was below 25 nM; in [5] (setting [19]), 15 nM; in data set [6] (IC50 (class), Pacritinib scale), 25 to 50 nM; in data set [6] (setting [19]) it was below 50 nM; in [8] (IC50 (class), Pacritinib scale) it was below 25 nM; in data set [8] (setting [19]) it was 18.4 nM. The 50% inhibitory concentration (IC50) in [9] (IC50 (class), Pacritinib scale) was below 25 nM; in data set [9] (setting [19]), 13.6 nM; in data set [11] (IC50 (class), Pacritinib scale), 25 to 50 nM; in [11] (setting [19]) it was 43.8 nM; in data set [12] (IC50 (class), Pacritinib scale) it was below 25 nM; in [12] (setting [19]), 14.5 nM. In addition, the 50% inhibitory concentration (IC50) in data set [13] (IC50 (class), Pacritinib scale) is below 25 nM; in [13] (setting [19]) it was 18.4 nM; in data set [16], above 100 nM; in data set [16] (recombinant kinase, 10 μM ATP), “Indeterminate”; in data set [17] (IC50 (class), Pacritinib scale), 25 to 50 nM; in data set [17] (setting [19]) it was 27 nM. Besides, the IC50 in [18] (IC50 (class), Pacritinib scale) is 25 to 50 nM; in data set [18] (setting [19]) it was 46.7 nM. Further, the viability and survival result in data set [7] is “reduces both the viability and survival”. The total steady-state levels in data set [10] was 5 to 7 µM. Moreover, in [10] (oral), the “mean peak plasma concentration of free drug at steady state” value was “approximately 200 nM”. For the same compound, the “activity combined with 5-azacitidine” value in data set [14] is recorded as “synergistic activity”. The “phosphorylation of IRAK1” value in [15] is reported as “inhibits the phosphorylation of IRAK1”. The remaining activity at 0.1 µM in [16] (read-out: kinase activity remaining (% control)) is 82%.

As usually defined, the IC50 is the concentration that inhibits the measured activity by half. The term remaining activity denotes the activity still measured, relative to the control.
